Here are results for 33 compounds from a melting point compilation (Tetko et al.; mined from patent text by program, amines drawn as free bases though some values may be those of a salt).

Usually melting point stands for the temperature, or range, at which the solid turns liquid. In turn, `CCCN1CCc2c(c(Br)cc([N+](=O)[O-])c2NC(C)=O)C1` registered a melting point of 166 to 167 °C. The compound `CC(C)(C)[Si](C)(C)OCCN(CCON1C(=O)c2ccccc2C1=O)CCON1C(=O)c2ccccc2C1=O` displayed a melting point of 56 to 58 °C. With `Cc1ccc(S(=O)(=O)Nc2onc(C)c2Br)cc1` the figure was 169 to 172 °C; with `COCCCCC(O)(c1ccccc1)c1ccccc1`, 112 to 115 °C; with `CC(C)CC[C@H](O)[C@H](CC1CCCCC1)NC(=O)[C@H](Cc1c[nH]cn1)NC(=O)[C@H](Cc1ccccc1)NC(=O)N1CCOCC1`, 108 to 110 °C.

Take `CCn1ncc(C(=O)c2ccc(S(C)(=O)=O)c(-n3nc(C)cc3C)c2Cl)c1O`: the melting point fell in the range of 217 to 218 °C. In turn, `CCCc1c(OCCCOc2ccc(C(C)=O)c(OCCCC(=O)OCC)c2CCC)ccc(C(C)=O)c1O` came in with a melting point of 77 to 79 °C.

`Cc1cc(Nc2c(C#N)cnc3cc(-c4csc(CN5CCOCC5)c4)ccc23)ccc1OCc1ccccn1` gave a melting point of 217 to 219 °C. `CCn1cc(C(=O)O)c(=O)c2ccc(N3CCN(C)CC3)cc21`: the melting point was determined as 215 °C. The compound `COc1ccc(N=C(CCc2ccccc2Cl)c2ccccc2)cc1` displayed a melting point of 83.5 to 84.5 °C. With `COc1cncnc1OCc1ccc(C(C)(C)C)cc1` the figure was 58 to 59 °C; with `Cc1c(Cl)c(Oc2c(Cl)cc(C(F)(F)F)cc2Cl)nn1C(=O)NC(C)C`, 109 to 111 °C. In the case of `O=P(Oc1ccc2ccccc2c1)(Oc1ccc2ccccc2c1)Oc1ccc2ccccc2c1`, the melting point lay within 110 to 111 °C.

Regarding `C[C@H](NC(=O)C[C@H](O)CC(=O)/C=C/c1c(C2CC2)nc2ccccc2c1-c1ccc(F)cc1)c1ccccc1`, the melting point lay within 150 to 151 °C.

The compound `CCNC1(c2ccccc2Cl)C(=O)N(Cc2ccc(C(=O)NC(C)(C)CO)cc2)c2ccc(Cl)cc21` (stereo not drawn) registered a melting point of 170 to 172 °C.

Turning to `O=C1NC(=O)c2c1c(-c1ccccc1Cl)cc1[nH]c3ccc(C(O)CO)cc3c21` (stereo not drawn), the melting point fell in the range of 265 to 268 °C. Compound `Clc1cnc2ccc(Br)cc2n1` yielded a melting point of 145 °C. To `COc1ccnc(CCc2nc3ccc(OC)nc3[nH]2)c1` belongs 93 to 95 °C; to `NC(=O)c1ccccc1OCCNCC(O)COc1nccnc1Cl` (stereo not drawn), 132 to 133 °C. Take `CCOC(=O)NN(C(=O)OCC)C1(c2ccc3c(c2)OCO3)C(=O)N(Cc2ccc(Cl)cc2)c2ccccc21` (stereo not drawn): the melting point was > 220 °C. Regarding `COc1ccc(CNc2cc(OC)c(Cl)cc2OC)cc1`, the melting point was 53 to 63 °C. In the case of `CCOC(=O)c1cnc(Nc2cc(OC)ccc2OC)[nH]c1=O`, the melting point fell in the range of 221 to 223 °C. With `CCn1c(=O)n(CCCCC(C)=O)c(=O)c2c1ncn2Cc1ccccc1` the figure was 123 to 125 °C. Regarding `O=C(O)c1ccc2cc(-c3ccc(OCCCO)c(C45CC6CC(CC(C6)C4)C5)c3)ccc2c1`, the melting point lay within 277 to 279 °C.

For `COC(c1nccs1)(c1nccs1)C(F)(F)F`, the melting point lay in the range of 40 to 41 °C. To `O=C(C=Cc1ccc(-c2nnn[nH]2)cc1)N1CCc2c([nH]c3ccccc23)C1c1ccc2c(c1)OCO2` (stereo not drawn) belongs 232 to 233 °C. As to `COc1cc2c(cc1OC)C(C)(CCC(=O)O)OCC2=O` (stereo not drawn), the melting point was 172 to 173 °C.

Compound `COc1ccc2c(n1)CC(=O)N2CCCBr` showed a melting point of 82 to 83 °C. `O=C(O)c1cc(Cl)c(OCc2ccc(Cl)cc2)c(Cl)c1` returned a melting point of 215 to 220 °C.

In turn, `Cc1ccc(N2CCCCC2)c(C(C)C(C(N)=O)c2ccc(C(=O)O)cc2)c1` (stereo not drawn) showed a melting point of 215 to 217 °C. The compound `CCCCN(CC)c1nc(C)nc2c1c(C)cn2-c1c(C)cc(CF)cc1C` displayed a melting point of 163 to 165 °C. `Cc1ccc(Oc2c(F)cc(C(F)(F)F)cc2Cl)cc1[N+](=O)[O-]` returned a melting point of 113 to 115 °C.

Compound `CCCn1c(=O)c2[nH]c(CC(C)c3ccc(OCc4ccccc4)cc3)nc2n(CCC)c1=O` (stereo not drawn) had a melting point of 124 to 126 °C.
